Target: T1, MRGPRX2 (Homo sapiens, UniProt Q96LB1)
T1 sequence (Q96LB1 1-330): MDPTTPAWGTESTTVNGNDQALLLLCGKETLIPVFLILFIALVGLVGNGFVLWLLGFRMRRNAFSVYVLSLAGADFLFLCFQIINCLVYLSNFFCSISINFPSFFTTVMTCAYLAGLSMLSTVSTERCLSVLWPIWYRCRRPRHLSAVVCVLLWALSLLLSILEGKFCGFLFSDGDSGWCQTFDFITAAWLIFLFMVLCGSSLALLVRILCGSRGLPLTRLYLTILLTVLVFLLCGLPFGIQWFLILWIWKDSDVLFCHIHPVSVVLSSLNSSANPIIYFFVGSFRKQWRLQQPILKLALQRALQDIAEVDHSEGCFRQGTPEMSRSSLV
Experiment: MRGPRX2 β-Arrestin recruitment assay (PathHunter CHO-K1)
Assay type: cell-based
Parameters: host or cells: PathHunter CHO-K1
Details: PathHunter CHO-K1 cells, agonist Cortistatin 14 0.25 μM
Excerpt: Example C: MRGPRX2 β-Arrestin Assay
This assay measures compound inhibition of β-Arrestin recruitment, which is part of the G protein-independent pathway that results from the ligand-activated GPCR phosphorylation by specific GPCR kinases. The PathHunter CHO-K1 MRPGRX2 B-Arrestin Cell line stably expressing ProLink tagged MRGPRX2 and Enzyme Acceptor Tagged B-Arrestin was purchased from Eurofins DiscoverX, (Fremont, CA).
The cells were maintained in culture medium from the Europhins DiscoverX Cell Culture Kit-107 which includes FBS, hygromycin B and G418. For the assay, the cells were harvested and were resuspended with Cell Plating Reagent 2 (Eurofins DiscoverX). Cells were added 10000 cells in 25 μL/well to a 384-well black cell culture plate (Greiner VWR, Radnor, PA) which contained 125 nL/well of compound at a selected serially diluted concentration range or DMSO. The plate was incubated at 37° C. with 5% CO2 for 1 h. 2 μL/well of agonist Cortistatin 14 was diluted in Protein Dilution Buffer, (Eurofins DiscoverX) for a final concentration of 0.25 μM, was added and the plate was incubated at 37° C. with 5% CO2 for 90 min. 14 μL/well of Detection Reagent Mix (PathHunter Detection Kit, Eurofins DiscoverX) was added to the plates and further incubated for 1 h in the dark. Plates were read on the PHERAstar microplate reader (BMG Labtech Cary, NC) measuring luminescence 0.1 to 1 s per well. Data was normalized using DMSO only wells and wells with high concentration of reference antagonist as controls. Compound IC50 curves were globally fitted with 3- or 4-parameter Hill equation in a Genedata Screener (Genedata Basel, Switzerland).

IC50	SMILES
0.1 to 100 nM	O=C1NC2(CO1)CN(C(CNc1cc(C(F)(F)F)nc3cc(C(F)(F)F)nn13)c1ccc(F)cc1)C2 (racemic) [Example 42, 2-(2-((2,5-Bis(trifluoromethyl)pyrazolo[1,5-a]pyrimidin-7-yl)amino)-1-(4-fluorophenyl)ethyl)-7-oxa-2,5-diazaspiro[3.4]octan-6-one]
0.1 to 100 nM	NC(=O)N1CC2(CCN(C(CNc3cc(C(F)(F)F)nc4cc(C(F)(F)F)nn34)c3ccc(F)cc3)C2)C1 (racemic) [Example 33, 6-(2-((2,5-Bis(trifluoromethyl)pyrazolo[1,5-a]pyrimidin-7-yl)amino)-1-(4-fluorophenyl)ethyl)-2,6-diazaspiro[3.4]octane-2-carboxamide]
0.1 to 100 nM	OC[C@H]1CCN(C(CNc2cc(C(F)(F)F)nc3cc(C(F)(F)F)nn23)c2ccc(F)cc2)C1 (mixture of isomers) [Example 31, ((3S)-1-(2-((2,5-Bis(trifluoromethyl)pyrazolo[1,5-a]pyrimidin-7-yl)amino)-1-(4-fluorophenyl)ethyl)pyrrolidin-3-yl)methanol]
0.1 to 100 nM	Cn1ccnc1NC1CN(C(CNc2cc(C(F)(F)F)nc3cc(C(F)(F)F)nn23)c2ccc(F)cc2)C1 (racemic) [Example 28, N-(2-(4-Fluorophenyl)-2-(3-((1-methyl-1H-imidazol-2-yl)amino)azetidin-1-yl)ethyl)-2,5-bis(trifluoromethyl)pyrazolo[1,5-a]pyrimidin-7-amine]
0.1 to 100 nM	[2H]C([2H])([2H])NC(=O)N1CC2(C1)CN(C(CNc1cc(C(F)(F)F)nc3cc(C(F)(F)F)nn13)c1ccc(F)cc1)C2 (racemic) [Example 40, 6-(2-((2,5-Bis(trifluoromethyl)pyrazolo[1,5-a]pyrimidin-7-yl)amino)-1-(4-fluorophenyl)ethyl)-N-(methyl-d3)-2,6-diazaspiro[3.3]heptane-2-carboxamide]
0.1 to 100 nM	NC(=O)N1CC2(C1)CN(C(CNc1cc(C(F)(F)F)nc3cc(C(F)(F)F)nn13)c1ccc(F)cc1)C2 (single isomer, unassigned) [Example 29, 6-(2-((2,5-Bis(trifluoromethyl)pyrazolo[1,5-a]pyrimidin-7-yl)amino)-1-(4-fluorophenyl)ethyl)-2,6-diazaspiro[3.3]heptane-2-carboxamide]
0.1 to 100 nM	N#CC1(C(=O)N2CC3(C2)CN(C(CNc2cc(C(F)(F)F)nc4cc(C(F)(F)F)nn24)c2ccc(F)cc2)C3)CC1 (racemic) [Example 38, 1-(6-(2-((2,5-Bis(trifluoromethyl)pyrazolo[1,5-a]pyrimidin-7-yl)amino)-1-(4-fluorophenyl)ethyl)-2,6-diazaspiro[3.3]heptane-2-carbonyl)cyclopropane-1-carbonitrile]
0.1 to 100 nM	Cn1cc(NC2CN(C(CNc3cc(C(F)(F)F)nc4cc(C(F)(F)F)nn34)c3ccc(F)cc3)C2)nn1 (racemic) [Example 27, N-(2-(4-Fluorophenyl)-2-(3-((1-methyl-1H-1,2,3-triazol-4-yl)amino)azetidin-1-yl)ethyl)-2,5-bis(trifluoromethyl)pyrazolo[1,5-a]pyrimidin-7-amine]
0.1 to 100 nM	OC1CCC12CN(C(CNc1cc(C(F)(F)F)nc3cc(C(F)(F)F)nn13)c1ccc(F)cc1)C2 (mixture of isomers) [Example 34, 2-(2-((2,5-Bis(trifluoromethyl)pyrazolo[1,5-a]pyrimidin-7-yl)amino)-1-(4-fluorophenyl)ethyl)-2-azaspiro[3.3]heptan-5-ol]
0.1 to 100 nM	O=C(NCC(F)(F)F)N1CC2(C1)CN(C(CNc1cc(C(F)(F)F)nc3cc(C(F)(F)F)nn13)c1ccc(F)cc1)C2 (racemic) [Example 41, 6-(2-((2,5-Bis(trifluoromethyl)pyrazolo[1,5-a]pyrimidin-7-yl)amino)-1-(4-fluorophenyl)ethyl)-N-(2,2,2-trifluoroethyl)-2,6-diazaspiro[3.3]heptane-2-carboxamide]
0.1 to 100 nM	O=C1CCC2(CN(C(CNc3cc(C(F)(F)F)nc4cc(C(F)(F)F)nn34)c3ccc(F)cc3)C2)N1 (racemic) [Example 32, 2-(2-((2,5-Bis(trifluoromethyl)pyrazolo[1,5-a]pyrimidin-7-yl)amino)-1-(4-fluorophenyl)ethyl)-2,5-diazaspiro[3.4]octan-6-one]
0.1 to 100 nM	C[C@@]1(O)CCN(C(CNc2cc(C(F)(F)F)nc3cc(C(F)(F)F)nn23)c2ccc(F)cc2)C1 (mixture of isomers) [Example 30, (3R)-1-(2-((2,5-Bis(trifluoromethyl)pyrazolo[1,5-a]pyrimidin-7-yl)amino)-1-(4-fluorophenyl)ethyl)-3-methylpyrrolidin-3-ol]
0.1 to 100 nM	O=C(CO)N1CC2(C1)CN(C(CNc1cc(C(F)(F)F)nc3cc(C(F)(F)F)nn13)c1ccc(F)cc1)C2 (racemic) [Example 39, 1-(6-(2-((2,5-Bis(trifluoromethyl)pyrazolo[1,5-a]pyrimidin-7-yl)amino)-1-(4-fluorophenyl)ethyl)-2,6-diazaspiro[3.3]heptan-2-yl)-2-hydroxyethan-1-one]

Continued, compound first:

SMILES	IC50
CC(CNc1cc(C(F)(F)F)nc2cc(C(F)(F)F)nn12)(c1ccc(F)cc1)C1CCN(C(N)=O)C1 (single isomer, unassigned) [Example 3, 3-(1-((2,5-Bis(trifluoromethyl)pyrazolo[1,5-a]pyrimidin-7-yl)amino)-2-(4-fluorophenyl)propan-2-yl)pyrrolidine-1-carboxamide]	0.1 to 100 nM
NC(=O)N1CC(C(CO)(CNc2cc(C(F)(F)F)nc3cc(C(F)(F)F)nn23)c2ccc(F)cc2)C1 (racemic) [Example 21, 3-(1-((2,5-Bis(trifluoromethyl)pyrazolo[1,5-a]pyrimidin-7-yl)amino)-2-(4-fluorophenyl)-3-hydroxypropan-2-yl)azetidine-1-carboxamide]	0.1 to 100 nM
OC1CC2CC1CN2C(CNc1cc(C(F)(F)F)nc2cc(C(F)(F)F)nn12)c1ccc(F)cc1 (centres unmarked) [Example 22, 2-(2-((2,5-Bis(trifluoromethyl)pyrazolo[1,5-a]pyrimidin-7-yl)amino)-1-(4-fluorophenyl)ethyl)-2-azabicyclo[2.2.1]heptan-5-ol]	0.1 to 100 nM
CC(CNc1cc(C(F)(F)F)nc2cc(C(F)(F)F)nn12)(c1ccc(F)cc1)C1CCN(C(N)=O)CC1 (racemic) [Example 2, 4-(1-((2,5-Bis(trifluoromethyl)pyrazolo[1,5-a]pyrimidin-7-yl)amino)-2-(4-fluorophenyl)propan-2-yl)piperidine-1-carboxamide]	0.1 to 100 nM
CC(CNc1cc(C(F)(F)F)nc2cc(C(F)(F)F)nn12)(c1ccc(F)cc1)C1CCN(C(N)=O)C1 (single isomer, unassigned) [Example 4, 3-(1-((2,5-Bis(trifluoromethyl)pyrazolo[1,5-a]pyrimidin-7-yl)amino)-2-(4-fluorophenyl)propan-2-yl)pyrrolidine-1-carboxamide]	0.1 to 100 nM
Cn1nc(N2CC(C(C)(CNc3cc(C(F)(F)F)nc4cc(C(F)(F)F)nn34)c3ccc(F)cc3)C2)ccc1=O (racemic) [Example 12, 6-(3-(1-((2,5-Bis(trifluoromethyl)pyrazolo[1,5-a]pyrimidin-7-yl)amino)-2-(4-fluorophenyl)propan-2-yl)azetidin-1-yl)-2-methylpyridazin-3(2H)-one]	0.1 to 100 nM
NC(=O)N1CCC(C(CNc2cc(C(F)(F)F)nc3cc(C(F)(F)F)nn23)c2ccc(F)cc2)CC1 (racemic) [Example 15, 4-(2-((2,5-Bis(trifluoromethyl)pyrazolo[1,5-a]pyrimidin-7-yl)amino)-1-(4-fluorophenyl)ethyl)piperidine-1-carboxamide]	0.1 to 100 nM
NC(=O)N1CCC(C(CO)(CNc2cc(C(F)(F)F)nc3cc(C(F)(F)F)nn23)c2ccc(F)cc2)C1 (single isomer, unassigned) [Example 19, 3-(1-((2,5-Bis(trifluoromethyl)pyrazolo[1,5-a]pyrimidin-7-yl)amino)-2-(4-fluorophenyl)-3-hydroxypropan-2-yl)pyrrolidine-1-carboxamide]	0.1 to 100 nM
Fc1ccc(C(CNc2cc(C(F)(F)F)nc3cc(C(F)(F)F)nn23)N2CC(c3ccccn3)C2)cc1 (racemic) [Example 24, N-(2-(4-Fluorophenyl)-2-(3-(pyridin-2-yl)azetidin-1-yl)ethyl)-2,5-bis(trifluoromethyl)pyrazolo[1,5-a]pyrimidin-7-amine]	0.1 to 100 nM
OC1CCC2(CC1)CN(C(CNc1cc(C(F)(F)F)nc3cc(C(F)(F)F)nn13)c1ccc(F)cc1)C2 (racemic) [Example 23, 2-(2-((2,5-Bis(trifluoromethyl)pyrazolo[1,5-a]pyrimidin-7-yl)amino)-1-(4-fluorophenyl)ethyl)-2-azaspiro[3.5]nonan-7-ol]	0.1 to 100 nM

Reference: patent US20250243208A1, “BICYCLIC HETEROCYCLES AS MRGPRX2 ANTAGONISTS” (Incyte Corporation, priority 2024, published 2025)
